# In publication PMC6290023 (Scientific Reports, 2018):
# Peptide text beside a SMILES is read from it.
# Key:
# tMCAo model in mice = assay: Transient middle cerebral artery occlusion (tMCAo) model; format: in vivo; settings: mouse tMCAo; for reduction of infarct volume: 150 μl i.v. 6 h after MCAo then s.c. Alzet pump 24 h; for neurological deficits (neurological severity score): start 6 h after MCAo
# Description: The plan of animal studies was approved by the Animal Committee of Graduate School of Medicine, Osaka University (25-029-012), and all animal experiments were carried out in accordance with the guidelines of Osaka University. All surgeries were performed using isoflurane and all efforts were made to minimize suffering. The C57Bl6/J mice were obtained from CLEA Japan, Inc. The transient middle cerebral artery occlusion procedure was described previously (1). Briefly, the mice were anesthetized with isoflurane (1.4%). The cerebral blood flow (CBF) was measured using a laser Doppler flowmeter (Unique Acquisition software; Unique Medical, Osaka, Japan). A 6.0 monofilament surgical suture was advanced into the internal carotid artery to obstruct the origin of the middle cerebral artery. The filament was left in place for 40 min before withdrawal. For all the mice, the rectal temperature was maintained at 37.0 ± 0.5 °C during surgery and recovery period (until the animals regained consciousness). […] MHP1 (4 mg/ml in water) was diluted to 0.5, 1, or 2 mg/ml in 0.45% saline, and 150 μl of the MHP1 was injected intravenously at 6 or 8 h after the MCAo. MHP1 was subsequently injected subcutaneously for 24 hrs using Alzet mini-osmotic pump (2001D, DURECT Corporation, Cupertino, USA). The vehicle control for MHP1, 0.45% saline, was injected similarly.
# The ischemic damage was evaluated at 48 h after MCAo in sections stained with cresyl violet. Coronal sections (12 μm thickness) were made at −1.4, −0.7, 0, 0.7 and 1.4 mm from the bregma, mounted on the stereomicroscope and photographed. The volume of the infarct was calculated by the sum of each area of all sections corrected by cerebral edema and multiplied by the thickness of the slices. In the experiment of tPA-induced hemorrhage, PE10-catheter was placed in the right internal jugular vein at 6 h after ischemia. The nylon suture was then removed and 10% of the MHP-AcN mixture (150 µg/mice) and tPA (10 mg/kg) were injected followed by continuous injection of residual mixture of MHP1-AcN and tPA using a syringe pump (UNIVENTOR 400 ANAESTHESIA UNIT, ZTN, MALTA). In the experiment of FeCl3 -induced thrombosis model in CCA, a piece of filter paper soaked in 7.5% FeCl3 was placed on the right CCA for 1 min and it was rinsed with saline. Blood flow was recorded by using a laser speckle blood flow imager (OMEGAZONE OZ-2, OMEGAWAVE, INC., Tokyo, Japan). tPA (10 mg/kg) or mixture of MHP1-AcN (150 μg/mice) and tPA was started to be administered at 30 min after CCA occlusion.
# [1] = Safety in normal mice (blood biochemistry); format: in vivo, mouse; settings: intravenous injection and continuous subcutaneous injection with Alzet pump, 24 h post-injection
compound,measurement,setting,value
CC[C@H](C)[C@H](NC(=O)[C@H](CO)NC(=O)[C@@H](NC(=O)[C@H](CCCCN)NC(=O)[C@@H](NC(=O)[C@@H](NC(=O)[C@H](Cc1ccc(O)cc1)NC(=O)[C@@H](NC(=O)[C@H](CCSC)NC(=O)[C@H](CC(C)C)NC(C)=O)C(C)C)C(C)C)C(C)C)[C@@H](C)O)C(=O)N[C@@H](CCCCN)C(=O)N[C@H](C(=O)N1CCC[C@H]1C(=O)N[C@@H](CO)C(=O)N[C@@H](CO)C(=O)N[C@@H](Cc1c[nH]cn1)C(=O)N[C@@H](CC(N)=O)C(=O)N[C@@H](CC(C)C)C(=O)N[C@@H](CCSC)C(=O)N[C@@H](CCCCN)C(=O)NCC(=O)NCC(=O)N[C@@H](CO)C(=O)N[C@H](C(=O)N[C@@H](CCCCN)C(=O)N[C@@H](CC(N)=O)C(=O)N[C@@H](Cc1c[nH]c2ccccc12)C(=O)N[C@@H](CO)C(=O)NCC(=O)N[C@@H](CC(N)=O)C(N)=O)[C@@H](C)O)[C@@H](C)CC [MHP1-AcN] (Ac-LMVYVVKTSIKIPSSHNLMKGGSTKNWSGN-NH2),reduction of infarct volume,"tMCAo model in mice; 0.5 mg/ml, infarct at 48 h",effective
same,neurological deficits (neurological severity score),tMCAo model in mice; 0.5 mg/ml,significantly improved
same,reduction of infarct volume,"tMCAo model in mice; 1 mg/ml, infarct at 48 h",the most effective dose
same,neurological deficits (neurological severity score),tMCAo model in mice; 1 mg/ml,significantly improved
same,neurological deficit,"tMCAo model in mice; 1 mg/ml, start 8 h after ischemia, at 48 h after ischemia",significantly improved
same,infarct volume compared to saline-treated mice,"tMCAo model in mice; 1 mg/ml, start 8 h after ischemia, infarct at 48 h",tendency of reduction
same,reduction of infarct volume,"tMCAo model in mice; 2 mg/ml, infarct at 48 h",effective
same,neurological deficits (neurological severity score),tMCAo model in mice; 2 mg/ml,tendency of recovery
same,blood biochemistry,[1],no abnormalities
